Results taken from the CheMixHub ionic liquid set.
“And” between values parts separate entries of the source, which are not always exact repeats. Equal entries are not always repeated.

Experiment: xn = mol fraction of the nth substance listed

O=C1CCCO1 + COCCn1cc[n+](C)c1.N#C[S-]
Conditions | viscosity [mPa·s]
313.15 K, 101 kPa, x2 = 0 | 1.38

CC(C)O + CS(=O)(=O)[O-].C[N+](C)(CCO)CCO
101 kPa, x2 = 0
Conditions | viscosity [mPa·s]
298.15 K | 2.08
303.15 K | 1.79
308.15 K | 1.546
313.15 K | 1.343
318.15 K | 1.189
323.15 K | 1.056

CCCC[n+]1ccn(C)c1.O=S(=O)([O-])C(F)(F)F + CS(C)=O
viscosity [mPa·s], 100 kPa
Conditions | x1 = 0.1006 | x1 = 0.2001 | x1 = 0.3054 | x1 = 0.4035 | x1 = 0.502 | x1 = 0.6085 | x1 = 0.7001 | x1 = 0.8088 | x1 = 0.9004 | x1 = 1
298.15 K | 4 | 6.59 | 10.1 | 14.3 | 21.8 | 33 | 44 | 59.8 | 72.8 | 82.4
303.15 K | 3.57 | 5.71 | 8.68 | 12.4 | 18.4 | 27.2 | 36 | 48.1 | 58.3 | 66.7
308.15 K | 3.18 | – | 7.55 | 10.5 | 15.5 | 22.7 | 29.7 | 39.6 | 47.4 | 52.9
313.15 K | 2.88 | 4.46 | 6.61 | 9.22 | 13.3 | 19.2 | 25 | 32.8 | 39 | 43.7
318.15 K | 2.61 | 3.98 | 5.83 | 8.08 | 11.5 | 16.4 | 21.2 | 27.5 | 32.6 | 36.3
323.15 K | 2.38 | 3.59 | 5.2 | 7.15 | 10.1 | 14.2 | 18.1 | 23.4 | 27.5 | 30.6

CCOP(=O)([O-])OCC.CC[n+]1ccn(C)c1 + CS(C)=O
298.1 K, 100 kPa
Conditions | electrical conductivity
x1 = 0.025 | 0.31 S/m and 0.4 S/m
x1 = 0.407 | 0.4 S/m
x1 = 0.718 | 0.16 S/m
x1 = 1 | 0.09 S/m

CCCC[n+]1ccn(C)c1.O=S(=O)([O-])C(F)(F)F + CS(C)=O + OCCO
viscosity [mPa·s], 100 kPa
Conditions | 298.15 K | 303.15 K | 308.15 K | 313.15 K | 318.15 K | 323.15 K
x1 = 0.0301, x2 = 0.903 | 3.07 | 2.75 | 2.47 | 2.25 | 2.04 | 1.86
x1 = 0.0698, x2 = 0.8409 | 3.41 | 3.16 | 2.83 | 2.56 | 2.32 | 2.12
x1 = 0.1006, x2 = 0.7931 | 4.04 | 3.69 | 3.29 | 2.96 | 2.67 | 2.43
x1 = 0.1311, x2 = 0.7537 | 5.33 | 4.67 | 4.14 | 3.69 | 3.31 | 3
x1 = 0.1702, x2 = 0.7004 | 6.5 | 5.61 | 4.93 | 4.37 | 3.9 | 3.51
x1 = 0.2067, x2 = 0.6494 | 8.13 | 6.91 | 6.04 | 5.31 | 4.71 | 4.21
x1 = 0.2329, x2 = 0.603 | 9 | 7.8 | 6.78 | 5.95 | 5.26 | 4.68
x1 = 0.2768, x2 = 0.5373 | 11.8 | 9.8 | 8.47 | 7.38 | 6.48 | 5.74
x1 = 0.3089, x2 = 0.4851 | 13.6 | 11.2 | 9.67 | 8.39 | 7.35 | 6.48
x1 = 0.3348, x2 = 0.4441 | 15.1 | 12.1 | 10.4 | 8.97 | 7.83 | 6.89
x1 = 0.3723, x2 = 0.3876 | 17.3 | 14.2 | 12.2 | 10.5 | 9.13 | 8
x1 = 0.4022, x2 = 0.3357 | 19 | 15.7 | 13.4 | 11.5 | 10 | 8.73
x1 = 0.4355, x2 = 0.2923 | 21.3 | 17.9 | 15.1 | 13 | 11.2 | 9.82
x1 = 0.473, x2 = 0.2581 | 23.3 | 19.3 | 16.3 | 14 | 12.1 | 10.5
x1 = 0.5076, x2 = 0.2336 | 25.5 | 21.2 | 17.9 | 15.2 | 13.1 | 11.4
x1 = 0.5442, x2 = 0.2004 | 27.9 | 23.2 | 19.6 | 16.6 | 14.3 | 12.4
x1 = 0.5775, x2 = 0.1858 | 30.3 | 25.2 | 21.2 | 18 | 15.4 | 13.4
x1 = 0.6051, x2 = 0.18 | 32.5 | 26.9 | 22.6 | 19.2 | 16.4 | 14.2
x1 = 0.6226, x2 = 0.1647 | 33.8 | 27.8 | 23.3 | 19.7 | 16.9 | 14.6
x1 = 0.6651, x2 = 0.1526 | 37.8 | 31 | 26.1 | 22 | 18.8 | 16.2
x1 = 0.6961, x2 = 0.1474 | 41.2 | 33.5 | 28.2 | 23.8 | 20.3 | 17.5

CCCCCCCCCCCCCCCC[n+]1ccccc1.O=C([O-])c1ccccc1O + C[C@H](N)C(=O)O + O
electrical conductivity [S/m], 101 kPa
Conditions | 293.15 K | 298.15 K | 303.15 K | 308.15 K | 313.15 K
x2 = 0.0009002, x1 = 5.4e-07 | 0.00045 | 0.00051 | 0.000575 | 0.000646 | 0.000726
x2 = 0.0009002, x1 = 1.09e-06 | 0.000683 | 0.000777 | 0.000872 | 0.000975 | 0.00108
x2 = 0.0009002, x1 = 1.63e-06 | 0.000904 | 0.00102 | 0.00114 | 0.00127 | 0.00141
x2 = 0.0009002, x1 = 2.17e-06 | 0.00109 | 0.00123 | 0.00139 | 0.00155 | 0.00172
x2 = 0.0009002, x1 = 2.53e-06 | – | – | – | 0.00181 | 0.002
x2 = 0.0009002, x1 = 2.71e-06 | 0.00125 | 0.00144 | 0.00162 | – | –
x2 = 0.0009002, x1 = 3.07e-06 | 0.00137 | 0.00158 | 0.0018 | 0.00202 | 0.00228
x2 = 0.0009002, x1 = 3.62e-06 | 0.00148 | 0.0017 | 0.00195 | 0.00222 | 0.00249
x2 = 0.0009002, x1 = 3.98e-06 | 0.00159 | 0.00182 | 0.00208 | 0.00237 | 0.00267
x2 = 0.0009002, x1 = 4.52e-06 | 0.0017 | 0.00194 | 0.00222 | 0.00253 | 0.00286
x2 = 0.0009002, x1 = 4.88e-06 | 0.00181 | 0.00206 | 0.00235 | 0.00268 | 0.00303
x2 = 0.0009002, x1 = 5.43e-06 | 0.00191 | 0.00218 | 0.00248 | 0.00282 | 0.00319
x2 = 0.0009002, x1 = 5.79e-06 | 0.002 | 0.00228 | 0.0026 | 0.00295 | 0.00334
x2 = 0.0009002, x1 = 6.15e-06 | 0.0021 | 0.00239 | 0.00271 | 0.00308 | 0.00347
x2 = 0.0009002, x1 = 6.51e-06 | 0.00217 | 0.00247 | 0.0028 | 0.00318 | 0.0036
x2 = 0.0009002, x1 = 6.69e-06 | 0.00224 | 0.00255 | 0.00289 | 0.00327 | 0.00369
x2 = 0.001799, x1 = 3.6e-07 | 0.00047 | 0.000542 | 0.000625 | 0.000719 | 0.000829
x2 = 0.001799, x1 = 5.4e-07 | 0.000604 | 0.000697 | 0.000797 | 0.000911 | 0.00103
x2 = 0.001799, x1 = 9.1e-07 | 0.00073 | 0.000837 | 0.000953 | 0.00108 | 0.00123
x2 = 0.001799, x1 = 1.27e-06 | 0.000889 | 0.00102 | 0.00115 | 0.0013 | 0.00146
x2 = 0.001799, x1 = 1.63e-06 | 0.00104 | 0.00119 | 0.00134 | 0.00151 | 0.0017
x2 = 0.001799, x1 = 1.81e-06 | 0.00112 | 0.00128 | 0.00145 | 0.00163 | 0.00183
x2 = 0.001799, x1 = 2e-06 | 0.00121 | 0.00138 | 0.00156 | 0.00175 | 0.00196
x2 = 0.001799, x1 = 2.18e-06 | 0.00127 | 0.00145 | 0.00165 | 0.00186 | 0.00208
x2 = 0.001799, x1 = 2.36e-06 | – | – | 0.00177 | 0.00198 | 0.00222
x2 = 0.001799, x1 = 2.54e-06 | 0.00134 | 0.00155 | – | – | –
x2 = 0.001799, x1 = 2.72e-06 | 0.00142 | 0.00164 | 0.00188 | 0.00212 | 0.0024
x2 = 0.001799, x1 = 3.09e-06 | 0.00151 | 0.00174 | 0.002 | 0.00229 | 0.0026
x2 = 0.001799, x1 = 3.63e-06 | 0.00161 | 0.00186 | 0.00213 | 0.00244 | 0.00276
x2 = 0.001799, x1 = 3.99e-06 | 0.00173 | 0.00198 | 0.00227 | 0.0026 | 0.00296
x2 = 0.001799, x1 = 4.54e-06 | 0.00183 | 0.0021 | 0.0024 | 0.00275 | 0.00312
x2 = 0.001799, x1 = 4.9e-06 | 0.00192 | 0.0022 | 0.00251 | 0.00287 | 0.00326

O=C1CCCO1 + C[NH+](C)C.O=S(=O)([N-]S(=O)(=O)C(F)(F)F)C(F)(F)F
Conditions | viscosity [mPa·s]
333.15 K, 101 kPa, x1 = 1 | 1.08

CCCC[N+]1(C)CCCC1.O=S(=O)([N-]S(=O)(=O)C(F)(F)F)C(F)(F)F + Cc1ccccc1
viscosity [mPa·s], 100 kPa
Conditions | x2 = 0 | x2 = 0.3041 | x2 = 0.3965 | x2 = 0.5054 | x2 = 0.6027 | x2 = 0.7066
298.15 K | 70.1 | – | – | 14.96 | 10.08 | –
303.15 K | – | 25.03 | 18.66 | – | – | –
313.15 K | 37.99 | 18.55 | 14.35 | – | – | 4.73

O=C[C@H](O)[C@@H](O)[C@H](O)[C@H](O)CO + Cn1cc[n+](CCC[n+]2ccn(C)c2)c1.[Br-].[Br-] + O
101 kPa, x2 = 0, x1 = 0.001799
Conditions | viscosity [mPa·s]
293.15 K | 1.043
298.15 K | 0.927
303.15 K | 0.83
308.15 K | 0.754
313.15 K | 0.683
